Values joined by “and” are separate entries in the source; they are usually repeats but may differ in a detail not shown here. Equal entries are not always repeated.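 Tested at 5 concentrations; 48 h exposure; 96-well plates; endpoints linearly interpolated, else capped at highest concentration. GI50 is the concentration that inhibits growth by half. Definition used: TGI = concentration required for complete inhibition of growth.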
What was measured:
Experiment in all cases: inhibition of tumour cell growth, NCI panel, 48 h
HCC-2998 colon = test system: HCC-2998 colon
RXF 393 renal = test system: RXF 393 renal
DMS 273 small cell lung = test system: DMS 273 small cell lung
KM20L2 colon = test system: KM20L2 colon
SK-MEL-5 melanoma = test system: SK-MEL-5 melanoma
RPMI-8226 leukemia = test system: RPMI-8226 leukemia
SR leukemia = test system: SR leukemia
MALME-3M melanoma = test system: MALME-3M melanoma
BT-549 breast = test system: BT-549 breast
MDA-MB-231 breast = test system: MDA-MB-231 breast

Compound | TGI (HCC-2998 colon) | TGI (RXF 393 renal) | TGI (DMS 273 small cell lung) [µM] | TGI (KM20L2 colon) [µM] | TGI (SK-MEL-5 melanoma) | TGI (RPMI-8226 leukemia) | TGI (SR leukemia) | TGI (MALME-3M melanoma) | GI50 (HCC-2998 colon) | GI50 (RXF 393 renal) | GI50 (DMS 273 small cell lung) [nM] | GI50 (SR leukemia) [µM] | GI50 (MALME-3M melanoma) | GI50 (KM20L2 colon) [µM] | GI50 (SK-MEL-5 melanoma) | GI50 (RPMI-8226 leukemia) | GI50 (BT-549 breast) | TGI (BT-549 breast) | GI50 (MDA-MB-231 breast) | TGI (MDA-MB-231 breast)
CC1(Sc2ccccc2)CN(Cc2ccccc2)C1=O (centres undefined) | > 100 µM | > 100 µM | > 100 | > 100 | > 100 µM | > 100 µM |  |  |  |  |  |  |  |  |  |  |  |  |  | 
CCOC(=O)C=C1CCN(C(=O)c2ccccc2)CC1 | > 100 µM | > 100 µM | > 100 | > 100 | > 100 µM | > 100 µM | > 100 µM | > 100 µM |  |  |  |  |  |  |  |  |  |  |  | 
COC(=O)[C@@H]1CSC(=S)N1C(=O)C[C@H]1CC=CC[C@H]1CC(=O)Sc1ccccc1 | 33.4 µM | 30.4 µM | 44.1 | 39 |  | 61.7 µM | 27.9 µM | 56.7 µM |  |  |  |  |  |  |  |  |  |  |  | 
C=C1C(=O)OC2CC3(C)C=CC(=O)C(=C)C3CC12 (centres undefined) | 6.55 µM | 4.46 µM | 2.64 | 6.88 | 3.48 µM | 3.22 µM | 12.4 µM | 4.02 µM |  |  |  |  |  |  |  |  |  |  |  | 
CCOP(=O)(OCC)C1CCCCOC1=O (centres undefined) | > 100 µM | > 100 µM | > 100 | > 100 | > 100 µM | > 100 µM |  | > 100 µM |  |  |  |  |  |  |  |  |  |  |  | 
O=C(CC1Sc2ccccc2NC1=O)Nc1cc(Cl)ccc1Cl (centres undefined) | > 100 µM | > 100 µM | > 100 | > 100 | > 100 µM | > 100 µM | 82.1 µM | > 100 µM |  |  |  |  |  |  |  |  |  |  |  | 
CC(=O)[O][Pb]([O]C(C)=O)([c]1ccccc1)[c]1ccccc1 | > 100 µM | 5.69 µM | > 100 | > 100 | 14 µM | > 100 µM | > 100 µM | > 100 µM | 44.9 µM | 1410 nM | 2880 | 6.22 | > 100 µM | 9.34 | 2910 nM | 4120 nM |  |  |  | 
O=C(NCCCCCCNC(=O)c1cccc2ccccc12)c1cccc2ccccc12 |  | 23.8 µM | 3.46 | > 100 | > 100 µM | > 100 µM | > 100 µM | > 100 µM |  |  |  |  |  |  |  |  |  |  |  | 
CS(=O)(=O)CC1=Nc2nnc(CCCCCCCc3nnc4n3C(=O)C(CS(C)(=O)=O)=N4)n2C1=O | > 100 µM | > 100 µM |  | > 100 | > 100 µM | > 100 µM | > 100 µM | > 100 µM |  |  |  |  |  |  |  |  |  |  |  | 
CC1=C2CCCC2C/C(=N/Nc2ccc([N+](=O)[O-])cc2[N+](=O)[O-])CC1 (centres undefined) | > 100 µM |  | > 100 | > 100 | > 100 µM | > 100 µM | > 100 µM | > 100 µM |  |  |  |  |  |  |  |  |  |  |  | 
CCC[CH2][Sn]([CH2]CCC)([O]C(C)=O)[O]C(C)=O | 2.92 µM | 0.654 µM | 7.04 | 3.81 | 2.4 µM | 2.11 µM | 4.72 µM | 2.36 µM | 1.53 µM | 195 nM | 2190 | 0.571 | 0.994 µM | 1.9 | 1040 nM | 321 nM |  |  |  | 
COc1cccc(C2=C(c3cn(C)c4ccccc34)C(=O)NC2=O)c1 | > 25 µM | > 25 µM |  |  | 10.1 µM | > 25 µM | > 25 µM | > 25 µM | > 22.1 µM | 6430 nM |  | 5.91 | 14.2 µM |  | 4610 nM | 14100 nM | 11.9 µM | > 25 µM | 17.4 µM | > 25 µM
COc1ccc(Cn2nc(-c3cc(OC)c(OC)c(OC)c3)c3c2CCc2cnoc2-3)cc1OC | > 100 µM | 9.29 µM |  |  | 12 µM | 23 µM | > 100 µM | > 100 µM | 5.85 µM | 1630 nM |  | 2.67 | 14.8 µM |  | 2780 nM | 2690 nM | 5.62 µM | > 100 µM | 8 µM | > 100 µM
CCn1c(-c2nonc2N)nc2cncc(C(=O)N3CCNCC3)c21 | > 25 µM | > 25 µM |  |  | > 25 µM | > 25 µM | > 25 µM | > 25 µM | > 25 µM | > 25000 nM |  | > 25 | > 25 µM |  | > 25000 nM | > 25000 nM | > 25 µM | > 25 µM | > 25 µM | > 25 µM
O=C(Nc1cccc(Cl)c1)Nc1ncc(CCNc2ncnc3ccsc23)s1 | 25.6 µM and > 10 µM | 10.1 µM and > 10 µM |  |  | 2.83 µM and 4.16 µM | 33.5 µM and 5.81 µM | 20.8 µM and > 10 µM | 26 µM and > 10 µM | 9.38 µM and > 10 µM | 1930 nM and 2160 nM |  |  | 3.23 µM and 4.07 µM |  | 1390 nM and 1590 nM | 2980 nM and 1320 nM | 2.07 µM and 1.68 µM | 11.8 µM and 7.75 µM | 3.38 µM and 2.67 µM | 17.4 µM and > 10 µM
Fc1ccc2[nH]cc(Cc3c[nH]c4ccc(F)cc34)c2c1 | 30.3 µM | 42.8 µM |  |  | 35.3 µM | 62.2 µM | > 100 µM | 33.8 µM | 13.3 µM | 18200 nM |  | 31.1 | 16.7 µM |  | 17500 nM | 21000 nM | 13.9 µM | 30.3 µM | 16.7 µM | 46.5 µM
O=c1cc(CNc2cc(F)cc(F)c2)c2ccc(I)cc2[nH]1 | > 100 µM | 38 µM |  |  | > 100 µM | > 100 µM | > 100 µM | > 100 µM | > 64.9 µM | 374 nM |  | 0.129 | 0.714 µM |  | 641 nM | 759 nM | 1.02 µM | > 100 µM | 77.8 µM | > 100 µM
C=C(C)[C@@H]1CC=C(CO)CC1 | > 10 µM and 1460 µM | > 10 µM and 569 µM |  | 945 | > 10 µM and 649 µM | > 10 µM | > 10 µM and 1080 µM | > 10 µM and 1080 µM | > 10 µM | > 10000 nM |  | > 10 | > 10 µM |  | > 10000 nM |  |  | > 10 µM |  | > 10 µM
CC1=CC(=O)c2c(O)cccc2C1=O | 4.12 µM | 3.07 µM |  |  | 3.05 µM | 1.83 µM | 4.95 µM | 2.19 µM |  |  |  |  |  |  |  |  |  | 3.15 µM |  | 3.64 µM

Source: PubChem BioAssay (NCI)
